In US12590062B2, “PD-1/PD-L1 inhibitors” (Gilead Sciences, Inc., priority 2017, dated 2026):

Target: T1, PD-1/PD-L1 interaction (Homo sapiens, UniProt Q9NZQ7)
T1 construct: expressed in transfected cells; host or cells: CHO cells (aAPC-PD-L1) co-cultured with Jurkat cells overexpressing PD-1 and an NFAT-luciferase reporter
Assay: PD-1/PD-L1 NFAT reporter co-culture assay
Format: cell-based
Conditions: Jurkat PD-1 NFAT-luciferase cells co-cultured with aAPC-PD-L1 CHO cells, 6 hrs at 37° C.; read-out: EC50 NFAT Luciferase
Outline: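 CHO aAPC-PD-L1 seeded overnight; PD-1/NFAT-luc Jurkat + cpd in RPMI 1640, 2% FBS added at once; 6 h, 37 °C; ONE-Glo luminescence; EC50, 4-parameter fit.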

T1 sequence (Q9NZQ7 19-290): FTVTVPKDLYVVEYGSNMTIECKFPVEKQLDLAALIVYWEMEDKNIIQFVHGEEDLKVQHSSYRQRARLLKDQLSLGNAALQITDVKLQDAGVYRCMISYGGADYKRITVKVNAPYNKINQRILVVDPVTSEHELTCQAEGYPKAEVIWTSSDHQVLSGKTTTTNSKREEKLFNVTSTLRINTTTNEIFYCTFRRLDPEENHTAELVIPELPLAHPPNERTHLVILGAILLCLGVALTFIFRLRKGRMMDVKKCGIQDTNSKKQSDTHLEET

SMILES	EC50 [µM]
N#Cc1cncc(COc2nc(OCc3cccc(-c4cccc(COc5ccc(CNC[C@@H](O)CC(=O)O)c(OCc6cncc(C#N)c6)n5)c4Cl)c3Cl)ccc2CNC[C@@H](O)CC(=O)O)c1 [Example 195, (3S,3′S)-4,4′-((((((2,2′-Dichloro-[1,1′-biphenyl]-3,3′-diyl)bis(methylene))bis(oxy))bis(2-((5-cyanopyridin-3-yl)methoxy)pyridine-6,3-diyl))bis(methylene))bis(azanediyl))bis(3-hydroxybutanoic acid)]	0.408
C[C@@](CO)(NCc1cc(Br)c(OCc2cccc(-c3cccc(COc4nc(OCc5cncc(C#N)c5)c(CN[C@@](C)(CO)C(=O)O)cc4Br)c3Cl)c2Cl)nc1OCc1cncc(C#N)c1)C(=O)O [Example 197, (2S,2′S)-2,2′-((((((2,2′-Dichloro-[1,1′-biphenyl]-3,3′-diyl)bis(methylene))bis(oxy))bis(5-bromo-2-((5-cyanopyridin-3-yl)methoxy)pyridine-6,3-diyl))bis(methylene))bis(azanediyl))bis(3-hydroxy-2-methylpropanoic acid)]	0.098
Cc1c(COc2cc(OCc3cncc(C#N)c3)c(CNCC(C)(O)CC(=O)O)cc2Cl)cccc1-c1cccc(COc2cc(OCc3cncc(C#N)c3)c(CNCC(C)(O)CC(=O)O)cc2Cl)c1C (stereo not shown) [Example 218, 4,4′-((((((2,2′-dimethyl-[1,1′-biphenyl]-3,3′-diyl)bis(methylene))bis(oxy))bis(5-chloro-2-((5-cyanopyridin-3-yl)methoxy)-4,1-phenylene))bis(methylene))bis(azanediyl))bis(3-hydroxy-3-methylbutanoic acid)]	0.68
COc1nc(OCc2cccc(-c3cccc(COc4nc(OC)c(CN[C@H]5CCC[C@H]5O)cc4Cl)c3C)c2C)c(Cl)cc1CN[C@H]1CCC[C@H]1O [Example 226, (1R,1′R,2S,2′S)-2,2′-((((((2,2′-dimethyl-[1,1′-biphenyl]-3,3′-diyl)bis(methylene))bis(oxy))bis(5-chloro-2-methoxypyridine-6,3-diyl))bis(methylene))bis(azanediyl))bis(cyclopentan-1-ol)]	0.775
COc1nc(OCc2cccc(-c3cccc(COc4nc(OC)c(CN[C@@H]5CCC[C@@H]5O)cc4Cl)c3C)c2C)c(Cl)cc1CN[C@@H]1CCC[C@@H]1O [Example 227, (1S,1′S,2R,2′R)-2,2′-((((((2,2′-dimethyl-[1,1′-biphenyl]-3,3′-diyl)bis(methylene))bis(oxy))bis(5-chloro-2-methoxypyridine-6,3-diyl))bis(methylene))bis(azanediyl))bis(cyclopentan-1-ol)]	0.615
COc1nc(OCc2cccc(-c3cccc(COc4nc(OC)c(CN[C@H]5CCCC[C@H]5O)cc4Cl)c3C)c2C)c(Cl)cc1CN[C@H]1CCCC[C@H]1O [Example 228, (1R,1′R,2S,2′S)-2,2′-((((((2,2′-dimethyl-[1,1′-biphenyl]-3,3′-diyl)bis(methylene))bis(oxy))bis(5-chloro-2-methoxypyridine-6,3-diyl))his(methylene))his(azanediyl))his(cyclohexan-1-ol)]	0.844
COc1nc(OCc2cccc(-c3cccc(COc4nc(OC)c(CN[C@H]5CCCC[C@@H]5O)cc4Cl)c3C)c2C)c(Cl)cc1CN[C@H]1CCCC[C@@H]1O [Example 229, (1S,1′S,2S,2′S)-2,2′-((((((2,2′-dimethyl-[1,1′-biphenyl]-3,3′-diyl)bis(methylene))bis(oxy))bis(5-chloro-2-methoxypyridine-6,3-diyl))bis(methylene))bis(azanediyl))bis(cyclohexan-1-ol)]	1.22
COc1nc(OCc2cccc(-c3cccc(COc4nc(OC)c(CN[C@H]5CCC[C@@H]5O)cc4Cl)c3C)c2C)c(Cl)cc1CN[C@H]1CCC[C@@H]1O [Example 230, (1S,1′S,2S,2′S)-2,2′-((((((2,2′-dimethyl-[1,1′-biphenyl]-3,3′-diyl)bis(methylene))bis(oxy))bis(5-chloro-2-methoxypyridine-6,3-diyl))bis(methylene))bis(azanediyl))bis(cyclopentan-1-ol)]	0.821
COc1nc(OCc2cccc(-c3cccc(COc4nc(OC)c(CN5CCOC[C@H]5C(=O)O)cc4Cl)c3C)c2C)c(Cl)cc1CN1CCOC[C@H]1C(=O)O [Example 233, (3S,3′S)-4,4′-(((((2,2′-dimethyl-[1,1′-biphenyl]-3,3′-diyl)bis(methylene))bis(oxy))bis(5-chloro-2-methoxypyridine-6,3-diyl))bis(methylene))bis(morpholine-3-carboxylicacid)]	11.6
COc1nc(OCc2cccc(-c3cccc(COc4nc(OC)c(CN5CCOC(C(=O)O)C5)cc4Cl)c3C)c2C)c(Cl)cc1CN1CCOC(C(=O)O)C1 (stereo not shown) [Example 235]	≥ 50
COc1nc(OCc2cccc(-c3cccc(COc4nc(OC)c(C(=O)NC[C@@H](O)CC(=O)O)cc4Cl)c3C)c2C)c(Cl)cc1C(=O)NC[C@@H](O)CC(=O)O [Example 237, (3S,3′S)-4,4′-((6,6′-(((2,2′-dimethyl-[1,1′-biphenyl]-3,3′-diyl)bis(methylene))bis(oxy))bis(5-chloro-2-methoxynicotinoyl))bis(azanediyl))bis(3-hydroxybutanoic acid)]	≥ 50
COc1nc(OCc2cccc(-c3cccc(COc4nc(OC)c(CN5CC[C@H](O)C5)cc4Br)c3C)c2C)c(Br)cc1CN1CC[C@H](O)C1 [Example 244, (3S,3′S)-1,1′-(((((2,2′-dimethyl-[1,1′-biphenyl]-3,3′-diyl)bis(methylene))bis(oxy))bis(5-bromo-2-methoxypyridine-6,3-diyl))bis(methylene))bis(pyrrolidin-3-ol)]	0.39
COc1nc(OCc2cccc(-c3cccc(COc4nc(OC)c(CN5CC[C@@H](O)C5)cc4Br)c3C)c2C)c(Br)cc1CN1CC[C@@H](O)C1 [Example 247, (3R,3′R)-1,1′-(((((2,2′-dimethyl-[1,1′-biphenyl]-3,3′-diyl)bis(methylene))bis(oxy))bis(5-bromo-2-methoxypyridine-6,3-diyl))bis(methylene))bis(pyrrolidin-3-ol)]	0.776
COc1nc(OCc2cccc(-c3cccc(COc4nc(OC)c(C5COCCN5)cc4Br)c3C)c2C)c(Br)cc1C1COCCN1 (stereo not shown) [Example 249, 3,3′-((((2,2′-dimethyl-[1,1′-biphenyl]-3,3′-diyl)bis(methylene))bis(oxy))bis(5-bromo-2-methoxypyridine-6,3-diyl))dimorpholine]	≥ 50
COc1nc(OCc2cccc(-c3cccc(COc4nc(OC)c(CN5CC(O)C5)cc4Br)c3C)c2C)c(Br)cc1CN1CC(O)C1 [Example 255, 1,1′-(((((2,2′-dimethyl-[1,1′-biphenyl]-3,3′-diyl)bis(methylene))bis(oxy))bis(5-bromo-2-methoxypyridine-6,3-diyl))bis(methylene))bis(azetidin-3-ol)]	≥ 50
CNC(=O)C1CN(Cc2cc(Br)c(OCc3cccc(-c4cccc(COc5nc(OC)c(CN6CC(C(=O)NC)C6)cc5Br)c4C)c3C)nc2OC)C1 [Example 256, 1,1′-(((((2,2′-dimethyl-[1,1′-biphenyl]-3,3′-diyl)bis(methylene))bis(oxy))bis(5-bromo-2-methoxypyridine-6,3-diyl))bis(methylene))bis(N-methylazetidine-3-carboxamide)]	0.758
Cc1c(COc2cc(OCc3cncc(C#N)c3)c(CN3CC[C@H]3CO)cc2Br)cccc1-c1cccc(COc2cc(OCc3cncc(C#N)c3)c(CN3CC[C@H]3CO)cc2Br)c1C [Example 260, 5,5′-((((((2,2′-dimethyl-[1,1′-biphenyl]-3,3′-diyl)bis(methylene))bis(oxy))bis(4-bromo-6-(((S)-2-(hydroxymethyl)azetidin-1-yl)methyl)-3,1-phenylene))bis(oxy))bis(methylene))dinicotinonitrile]	0.463
COc1nc(OCc2cccc(-c3cccc(COc4nc(OC)c(CNCCN5CCCS5(=O)=O)cc4Br)c3C)c2C)c(Br)cc1CNCCN1CCCS1(=O)=O [Example 264, 2,2′-(((((((2,2′-dimethyl-[1,1′-biphenyl]-3,3′-diyl)bis(methylene))bis(oxy))bis(5-bromo-2-methoxypyridine-6,3-diyl))bis(methylene))bis(azanediyl))bis(ethane-2,1-diyl))bis(isothiazolidine 1,1-dioxide)]	1.29
COc1nc(OCc2cccc(-c3cccc(COc4nc(OC)c(CNCCNS(C)(=O)=O)cc4Br)c3C)c2C)c(Br)cc1CNCCNS(C)(=O)=O [Example 266, N,N′-(((((((2,2′-dimethyl-[1,1′-biphenyl]-3,3′-diyl)bis(methylene))bis(oxy))bis(5-bromo-2-methoxypyridine-6,3-diyl))bis(methylene))bis(azanediyl))bis(ethane-2,1-diyl))dimethanesulfonamide]	1.38
COc1nc(OCc2cccc(-c3cccc(COc4nc(OC)c(CN(C)CCN5CCOCC5)cc4Br)c3C)c2C)c(Br)cc1CN(C)CCN1CCOCC1 [Example 268, N,N′-(((((2,2′-dimethyl-[1,1′-biphenyl]-3,3′-diyl)bis(methylene))bis(oxy))bis(5-bromo-2-methoxypyridine-6,3-diyl))bis(methylene))bis(N-methyl-2-morpholinoethan-1-amine)]	0.993
COc1nc(OCc2cccc(-c3cccc(COc4nc(OC)c(CN5CCNC(=O)C5)cc4Br)c3C)c2C)c(Br)cc1CN1CCNC(=O)C1 [Example 270, 4,4′-(((((2,2′-dimethyl-[1,1′-biphenyl]-3,3′-diyl)bis(methylene))bis(oxy))bis(5-bromo-2-methoxypyridine-6,3-diyl))bis(methylene))bis(piperazin-2-one)]	≥ 50
CNC(=O)[C@](C)(CO)NCc1cc(Br)c(OCc2cccc(-c3cccc(COc4nc(OC)c(CN[C@@](C)(CO)C(=O)NC)cc4Br)c3C)c2C)nc1OC [Example 274, (2S,2′S)-2,2′-((((((2,2′-dimethyl-[1,1′-biphenyl]-3,3′-diyl)bis(methylene))bis(oxy))bis(5-bromo-2-methoxypyridine-6,3-diyl))bis(methylene))bis(azanediyl))bis(3-hydroxy-N,2-dimethylpropanamide)]	1.2
